Source: patent publication US20130102631A1, “NOVEL MICROBIOCIDAL DIOXIME ETHER DERIVATIVES” (SYNGENTA CROP PROTECTION LLC, priority 2010, published 2013)

Assays:
Glomerella lagenarium = Glomerella lagenarium (Colletotrichum lagenarium) / liquid culture (anthracnose); type: cell-based; settings: Colletotrichum orbiculare; at ≦200 ppm, liquid culture PDB, inhibition of growth photometrically 3-4 days after application; read-out: control of Glomerella lagenarium
Summary of the method: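 Glomerella lagenarium conidia in potato dextrose broth added to test compound supplied in DMSO in microtiter wells. Plates incubated at 24° C.; growth inhibition measured photometrically 3-4 days after application.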

[1] = system: Mycosphaerella graminicola (Septoria tritici); experiment: Mycosphaerella graminicola (Septoria tritici) / liquid culture (Septoria blotch); type: cell-based; settings: Zymoseptoria tritici; at ≦200 ppm, liquid culture PDB, inhibition of growth photometrically 4-5 days after application; read-out: control of Mycosphaerella graminicola
Gaeumannomyces graminis = Gaeumannomyces graminis / liquid culture (take-all of cereals); type: cell-based; settings: at ≦200 ppm, liquid culture PDB, inhibition of growth photometrically 4-5 days after application, read-out: control of Gaeumannomyces graminis
Summary of the method: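 Mycelial fragments of the fungus in potato dextrose broth were added to wells containing compound in DMSO. Plates were incubated at 24° C, and growth inhibition was read photometrically 4-5 days after application.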

[2] = system: Thanatephorus cucumeris (Rhizoctonia solani); experiment: Thanatephorus cucumeris (Rhizoctonia solani) / liquid culture (foot rot, damping-off); type: cell-based; settings: at ≦200 ppm, liquid culture PDB, inhibition of growth photometrically 3-4 days after application, read-out: control of Thanatephorus cucumeris
Experimental: Thanatephorus cucumeris (Rhizoctonia solani)/Liquid Culture (Foot Rot, Damping-Off Mycelia fragments of a newly grown liquid culture of the fungus are directly mixed into nutrient broth (PDB potato dextrose broth). After placing a DMSO solution of the test compounds into a 96-well microtiter, the nutrient broth containing the fungal material was added. The test plates were incubated at 24° C. and the inhibition of growth was determined photometrically 3-4 days after application. […]-2.508 5.561; 2.561; P.57; 2.513; 2.559; 2.558; 2.553; 2.533; 2.530; 2.526; 2.519; 2.517; 2.516; 2.514; 2.512; 2.514

[3] = system: Monographella nivalis (Microdochium nivale); experiment: Monographella nivalis (Microdochium nivale) / liquid culture (foot rot cereals); type: cell-based; settings: at ≦200 ppm, liquid culture PDB, inhibition of growth photometrically 4-5 days after application, read-out: control of Monographella nivalis
Summary of the method: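 Microdochium nivale conidia in potato dextrose broth added to compound delivered in DMSO, then incubated at 24 °C. Growth inhibition measured photometrically 4-5 days after application.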

[4] = system: Blumeria graminis f. sp. tritici (Erysiphe graminis f. sp. tritici); experiment: Blumeria graminis f. sp. tritici / wheat / leaf disc preventative (powdery mildew on wheat); type: in vivo; settings: foliar, wheat leaf segments cv. Kanzler, inoculated 1 day after application, assessed 6-8 days after application
Summary of the method: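 Wheat cv. Kanzler leaf segments on agar sprayed with formulated compound at 200 ppm, inoculated 1 day later with powdery mildew, incubated at 20° C, 60% RH (24 h dark then 12 h/12 h). Percent disease control versus untreated scored 6-8 days after application.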

[5] = system: Puccinia recondita f. sp. tritici; experiment: Puccinia recondita f. sp. tritici / wheat / leaf disc curative (brown rust); type: in vivo; settings: foliar, wheat leaf segments cv Kanzler, 200 ppm applied 1 day after inoculation, assessed 6-8 days after application
Experimental: Puccinia recondita f. sp. tritici/Wheat/Leaf Disc Curative (Brown Rust): Wheat leaf segments cv Kanzler were placed on agar in 24-well plates. The leaf segments were inoculated with a spore suspension of the fungus. The plates were stored in darkness at 19° C. and 75% relative humidity. The formulated test compound diluted in water was applied at an application rate of 200 ppm 1 day after inoculation. […]-2.508; 5.561; 2.561; E/E-2.208; 2.513; 2.559; 2.556; 2.555; 2.374; 2.552; 2.537; 2.519; 2.516; 2.514; […].002; 2.512; E/E-2.507

Cc1ccc(O)c(/C=N/OCC(C)(C)CO/N=C2\CCCc3ccc(C)nc32)n1 [Compound 2.533]
≥ 80%: inhibition of growth at up to 200 µg/mL (Glomerella lagenarium) | inhibition of growth at up to 200 µg/mL [1] | inhibition of growth at up to 200 µg/mL (Gaeumannomyces graminis) | inhibition of growth at up to 200 µg/mL [2] | inhibition of growth at up to 200 µg/mL [3] | pest or weed control at 200 ppm [4]

Cc1ccc2c(n1)/C(=N/OCC(C)(C)CO/N=C/c1cccc(Oc3ccccc3)n1)CCC2 [Compound 2.530]
≥ 80%: inhibition of growth at up to 200 µg/mL (Glomerella lagenarium) | inhibition of growth at up to 200 µg/mL [1] | inhibition of growth at up to 200 µg/mL [2] | inhibition of growth at up to 200 µg/mL [3] | pest or weed control at 200 ppm [4]

C/C(=N\OCCCO/N=C1\CCCc2ccc(C)nc21)c1cccc(-c2ccccc2)n1 [Compound 2.514]
≥ 80%: pest or weed control at 200 ppm [5] | inhibition of growth at up to 200 µg/mL (Glomerella lagenarium) | inhibition of growth at up to 200 µg/mL [1] | inhibition of growth at up to 200 µg/mL (Gaeumannomyces graminis) | inhibition of growth at up to 200 µg/mL [2] | inhibition of growth at up to 200 µg/mL [3] | pest or weed control at 200 ppm [4]

CC/C(=N\OCC(C)(C)CO/N=C1\CCCc2ccc(C)nc21)c1ccccn1 [Compound 2.516]
≥ 80%: pest or weed control at 200 ppm [5] | inhibition of growth at up to 200 µg/mL (Glomerella lagenarium) | inhibition of growth at up to 200 µg/mL [1] | inhibition of growth at up to 200 µg/mL (Gaeumannomyces graminis) | inhibition of growth at up to 200 µg/mL [2] | inhibition of growth at up to 200 µg/mL [3] | pest or weed control at 200 ppm [4]

C/C(=N\OCC(C)(C)CO/N=C1\CCCc2ccc(C)nc21)c1ccc2ccccc2n1 [Compound 2.512]
≥ 80%: pest or weed control at 200 ppm [5] | inhibition of growth at up to 200 µg/mL (Glomerella lagenarium) | inhibition of growth at up to 200 µg/mL [1] | inhibition of growth at up to 200 µg/mL (Gaeumannomyces graminis) | inhibition of growth at up to 200 µg/mL [2] | inhibition of growth at up to 200 µg/mL [3] | pest or weed control at 200 ppm [4]

C/C(=N\OCC1(CO/N=C2\CCCc3c2nc2ccccc2c3C)CC1)c1cc(C)cc(C)n1 [Compound 5.561]
≥ 80%: pest or weed control at 200 ppm [5] | inhibition of growth at up to 200 µg/mL (Glomerella lagenarium) | inhibition of growth at up to 200 µg/mL [1] | inhibition of growth at up to 200 µg/mL (Gaeumannomyces graminis) | inhibition of growth at up to 200 µg/mL [2] | pest or weed control at 200 ppm [4]

C/C(=N\OCC(C)(C)CO/N=C1\CCCc2ccc(C)nc21)c1cccc(C)n1 [E/E-2.002]
≥ 80%: pest or weed control at 200 ppm [5] | inhibition of growth at up to 200 µg/mL (Glomerella lagenarium) | inhibition of growth at up to 200 µg/mL [1] | inhibition of growth at up to 200 µg/mL (Gaeumannomyces graminis) | inhibition of growth at up to 200 µg/mL [2] | inhibition of growth at up to 200 µg/mL [3] | pest or weed control at 200 ppm [4]

Cc1cccc(/C(=N/OCC(C)(C)CO/N=C2\CCCc3ccc(C)nc32)c2ccccc2)n1 [E/E-2.474]
≥ 80%: pest or weed control at 200 ppm [5] | inhibition of growth at up to 200 µg/mL (Glomerella lagenarium) | inhibition of growth at up to 200 µg/mL [1] | inhibition of growth at up to 200 µg/mL (Gaeumannomyces graminis) | inhibition of growth at up to 200 µg/mL [2] | inhibition of growth at up to 200 µg/mL [3] | pest or weed control at 200 ppm [4]

C/C(=N\OCC(C)(C)CO/N=C1\CCCc2ccc(C)nc21)c1ccc2c(n1)CCCC2 [Compound 2.513]
≥ 80%: pest or weed control at 200 ppm [5] | inhibition of growth at up to 200 µg/mL (Glomerella lagenarium) | inhibition of growth at up to 200 µg/mL [1] | inhibition of growth at up to 200 µg/mL (Gaeumannomyces graminis) | inhibition of growth at up to 200 µg/mL [2] | inhibition of growth at up to 200 µg/mL [3] | pest or weed control at 200 ppm [4]

C/C(=N\OCC(C)(C)CO/N=C1\CCCc2ccc(C)nc21)c1cccc(Br)n1 [E/E-2.508]
≥ 80%: pest or weed control at 200 ppm [5] | inhibition of growth at up to 200 µg/mL (Glomerella lagenarium) | inhibition of growth at up to 200 µg/mL [1] | inhibition of growth at up to 200 µg/mL (Gaeumannomyces graminis) | inhibition of growth at up to 200 µg/mL [2] | inhibition of growth at up to 200 µg/mL [3]

Cc1ccc2c(n1)/C(=N/OCC(C)(C)CO/N=C/c1ccc3ccccc3n1)CCC2 [E/E-2.507]
≥ 80%: pest or weed control at 200 ppm [5] | inhibition of growth at up to 200 µg/mL (Glomerella lagenarium) | inhibition of growth at up to 200 µg/mL [1] | inhibition of growth at up to 200 µg/mL (Gaeumannomyces graminis) | inhibition of growth at up to 200 µg/mL [2] | inhibition of growth at up to 200 µg/mL [3]

C/C(=N\OCC(C)(C)CO/N=C1\CCCc2ccc(Oc3ccccc3)nc21)c1cc(C)cc(C)n1 [Compound 2.556]
≥ 80%: pest or weed control at 200 ppm [5] | inhibition of growth at up to 200 µg/mL (Glomerella lagenarium) | inhibition of growth at up to 200 µg/mL [1] | inhibition of growth at up to 200 µg/mL (Gaeumannomyces graminis) | inhibition of growth at up to 200 µg/mL [3] | pest or weed control at 200 ppm [4]

COc1cccc(/C(C)=N/OCC(C)(C)CO/N=C2\CCCc3ccc(C)nc32)n1 [Compound 2.374]
≥ 80%: pest or weed control at 200 ppm [5] | inhibition of growth at up to 200 µg/mL (Glomerella lagenarium) | inhibition of growth at up to 200 µg/mL [1] | inhibition of growth at up to 200 µg/mL (Gaeumannomyces graminis) | inhibition of growth at up to 200 µg/mL [3] | pest or weed control at 200 ppm [4]

C/C(=N\OCC(C)(C)CO/N=C1\CCCc2ccc(C)nc21)c1cc(C)cc(C)n1 [E/E-2.168]
≥ 80%: pest or weed control at 200 ppm [5] | inhibition of growth at up to 200 µg/mL (Glomerella lagenarium) | inhibition of growth at up to 200 µg/mL [1] | inhibition of growth at up to 200 µg/mL (Gaeumannomyces graminis) | inhibition of growth at up to 200 µg/mL [2] | inhibition of growth at up to 200 µg/mL [3] | pest or weed control at 200 ppm [4]

C/C(=N\OCC(C)(C)CO/N=C1\CCCc2c1nc1ccccc1c2C)c1cc(C)cc(C)n1 [Compound 2.561]
≥ 80%: pest or weed control at 200 ppm [5] | inhibition of growth at up to 200 µg/mL (Glomerella lagenarium) | inhibition of growth at up to 200 µg/mL [1] | inhibition of growth at up to 200 µg/mL (Gaeumannomyces graminis) | inhibition of growth at up to 200 µg/mL [2] | pest or weed control at 200 ppm [4]

C/C(=N\OCC1(CO/N=C2\CCCc3ccc(C)nc32)CC1)c1cc(C)cc(C)n1 [E/E-5.167]
≥ 80%: pest or weed control at 200 ppm [5] | inhibition of growth at up to 200 µg/mL (Glomerella lagenarium) | inhibition of growth at up to 200 µg/mL [1] | inhibition of growth at up to 200 µg/mL (Gaeumannomyces graminis) | inhibition of growth at up to 200 µg/mL [3] | pest or weed control at 200 ppm [4]

C=C(CO/N=C(\C)c1cccc(C)n1)CO/N=C1\CCCc2ccc(C)nc21 [E/E-3.002]
≥ 80%: pest or weed control at 200 ppm [5] | inhibition of growth at up to 200 µg/mL (Glomerella lagenarium) | inhibition of growth at up to 200 µg/mL [1] | inhibition of growth at up to 200 µg/mL (Gaeumannomyces graminis) | pest or weed control at 200 ppm [4]

C/C(=N\OCC(C)(C)CO/N=C1\CCCc2ccc(Cl)nc21)c1cc(C)cc(C)n1 [Compound 2.555]
≥ 80%: pest or weed control at 200 ppm [5] | inhibition of growth at up to 200 µg/mL (Glomerella lagenarium) | inhibition of growth at up to 200 µg/mL [1] | inhibition of growth at up to 200 µg/mL (Gaeumannomyces graminis) | inhibition of growth at up to 200 µg/mL [3] | pest or weed control at 200 ppm [4]
